Residues, ends and D or L forms follow the SMILES beside them. *: point of attachment. Cbz = O=C(OCc1ccccc1)*
Test system: H2B
Test: Western blotting of H2B degradation, HeLa cells
Assay type: cell-based

SMILES	effect on H2B degradation by Tz-MitoFlag (100 μM, 24 h) and TP2T (10 nM, 24 h) (coincubated or pretreated with Thalidomide 10 μM)	effect on H2B degradation by Tz-MitoFlag (100 μM, 24 h) and TP2T (10 nM, 24 h) (coincubated or pretreated with MG132 10 μM)
O=C1CCC(N2C(=O)c3ccccc3C2=O)C(=O)N1 (centres unmarked) [Thalidomide, thalidomide]	inhibited	
CC(C)C[C@@H](C=O)NC(=O)[C@H](CC(C)C)NC(=O)[C@H](CC(C)C)NC(=O)OCc1ccccc1 [MG132] (Cbz-Leu-Leu-Leu-aldehyde)		no degradation of H2B
